Laboratory results: publication PMC6851324, “Design and development of stapled transmembrane peptides that disrupt the activity of G-protein–coupled receptor oligomers” (The Journal of Biological Chemistry, 2019)
Where a SMILES comes first, the peptide text is derived from it.

B1: CB1R N-terminally tagged with LgBiT or SmBiT, CMV promoter (receptor, human, UniProt P21554 1-472, looked up)
chain: MKSILDGLADTTFRTITTDLLYVGSNDIQYEDIKGDMASKLGYFPQKFPLTSFRGSPFQEKMTAGDNPQLVPADQVNITEFYNKSLSSFKENEENIQCGENFMDIECFMVLNPSQQLAIAVLSLTLGTFTVLENLLVLCVILHSRSLRCRPSYHFIGSLAVADLLGSVIFVYSFIDFHVFHRKDSRNVFLFKLGGVTASFTASVGSLFLTAIDRYISIHRPLAYKRIVTRPKAVVAFCLMWTIAIVIAVLPLLGWNCEKLQSVCSDIFPHIDETYLMFWIGVTSVLLLFIVYAYMYILWKAHSHAVRMIQRGTQKSIIIHTSEDGKVQVTRPDQARMDIRLAKTLVLILVVLIICWGPLLAIMVYDVFGKMNKLIKTVFAFCSMLCLLNSTVNPIIYALRSKDLRHAFRSMFPSCEGTAQPLDNSMGDSDCLHKHANNAASVHRAAESCIKSTVKIAKVTMSVSTDTSAEAL
notes: cannabinoid receptor type 1 (CB1R), human, cloned from the cDNA Resource Center plasmid; also called LgBiT–CB1R; LgBT–CB1R; source: HEK293, transiently transfected (CMV promoter), live cells; not shown: LgBiT or SmBiT (one of the two on each copy; LgBiT in the peptide screen), N-terminal, kept

Experiments:
Stability in mouse serum = assay type: in vitro ADME; conditions: 11.1 μM peptide, fresh nonsterile mouse serum (200 μl serum + 25 μl peptide solution, pH 7.5 buffer with 10% DMSO), 37 °C, quench 15% TCA in acetonitrile, HPLC, n = 3; read-out: Half-life (hours), mouse serum (converted)
Description: (§1) Figure 4. Biophysical analysis of stapled peptides. A, amino acid sequence alignment of the targeted TM regions and disrupting peptides. Cys residues are in the reduced state. Blue bridges indicate the stapled amino acid residues. […] Yields, purity, and MALDI-TOF data are shown for the stapled peptides and negative control. B, CD analysis of 30–50 μM peptides at 20 °C. For proteolytic stability studies, the peptide solution (55.5 μM for trypsin and chymotrypsin and 11.1 μM for serum) was incubated in the presence of 0.55 μg/ml trypsin from porcine pancreas (E), α-chymotrypsin (F), or mouse serum (G) at 37 °C for the indicated times (indicated on the x axis). Data are mean ± S.E. (error bars) (n = 3) percentage of intact peptide normalized to t = 0. Proteolytic half-lives and putative cleavage sites (predicted using the Expasy bioinformatics server's model with a 50% probability of cleavage) are indicated at the bottom of each panel. Positive correlation between helicity and half-life in trypsin/chymotrypsin (C) or serum (D) was determined by two-tailed Pearson's correlation test. TEXT PRINTED IN THE PICTURE: (B) TM7-TAT: Ellipticity (%): 3.4 | (B) TM6-TAT: Ellipticity (%): 18.3 | (B) TM5-TAT: Ellipticity (%): 20.9 | (B) 8: Ellipticity (%): 58.3 | (B) 9: Ellipticity (%): 46.4 | (B) 10: Ellipticity (%): 36.8 | (B) 11: Ellipticity (%): 46 | (E) TM7-TAT: Half-life (min): 21; #Cleavage sites: 8 | (E) TM6-TAT: Half-life (min): 40; #Cleavage sites: 7 | (E) TM5-TAT: Half-life (min): 33; #Cleavage sites: 8 | (E) 8: Half-life (min): 307; #Cleavage sites: 0 | (E) 9: Half-life (min): 178; #Cleavage sites: 0 | (E) 10: Half-life (min): 75; #Cleavage sites: 6 | (E) 11: Half-life (min): 84; #Cleavage sites: 0 | (F) TM7-TAT: Half-life (min): 22; #Cleavage sites: 6 | (F) TM6-TAT: Half-life (min): 32; #Cleavage sites: 7 | (F) TM5-TAT: Half-life (min): 28; #Cleavage sites: 7 | (F) 8: Half-life (min): 425; #Cleavage sites: 4 | (F) 9: Half-life (min): 198; #Cleavage sites: 3 | (F) 10: Half-life (min): 63; #Cleavage sites: 2 | (F) 11: Half-life (min): 79; #Cleavage sites: 4 | (G) TM7-TAT: Half-life (hours): 0.46 | (G) TM6-TAT: Half-life (hours): 0.55 | (G) TM5-TAT: Half-life (hours): 0.81 | (G) 8: Half-life (hours): ≥18 | (G) 9: Half-life (hours): 14.7 | (G) 10: Half-life (hours): 11.7 | (G) 11: Half-life (hours): 5.3 DOUBTS OF THE COPYIST ABOUT THIS PICTURE: Panel A table (Yield, Rt, Purity, [M+H+] calc., [M+H+] Peak Found for 7-11) left out as synthesis and mass-spectrum characterisation data; uncertain whether [M+H+] calc. should count as a molecular weight
(§2) Dose–response curves were fitted using a four-parameter logistic nonlinear regression mode. Peptide stability data were fitted using a nonlinear regression mode for dissociation kinetics. All statistical tests, curve fitting, and graphing were performed using GraphPad Prism 8 (GraphPad Software, La Jolla, CA).
To 200 μl of fresh nonsterile mouse serum was added 25 μl of peptide solution (100 μM, dissolved in ammonium bicarbonate buffer, pH 7.5, containing 10% DMSO), and the mixture was incubated at 37 °C. At the specified time, an aliquot of incubation mixture was withdrawn and quenched by the addition of an equal volume of 15% TCA in acetonitrile to precipitate out serum proteins over ice for 30 min. The mixture was then centrifuged at 13,500 rpm for 10 min, and the supernatant was collected and analyzed by HPLC in a similar manner as described previously. The experiment was repeated twice on different days.

5-HT2AR–CB1R heteromers = system: 5-HT2AR–CB1R heteromers; design: method as in 2 sources, ref 16 = [16]; PMID 26158621; doi:10.1371/journal.pbio.1002194; 16. Viñals X. , Moreno E. , Lanfumey L. , Cordomí A. , Pastor A. , de La Torre R. , Gasperini P. , Navarro G. , Howell L. A. , Pardo L. , Lluís C. , Canela E. I. , McCormick P. J. , Maldonado R. , and ||| ref 4, unpublished observations; conditions: synthetic TM-mimicking peptides fused to HIV-TAT; cited from earlier work
[1] = target: T1, α-chymotrypsin from bovine pancreas (Bos taurus, UniProt P00766, DEL14-15/DEL147-148); assay: Proteolytic stability against chymotrypsin; assay type: in vitro ADME; conditions: cattle, isolated enzyme chymotrypsin; 55.5 μM peptide, 0.55 μg/ml α-chymotrypsin from bovine pancreas, ammonium bicarbonate buffer pH 7.5, 37 °C, 15–480 min, intact peptide by RP-HPLC, n = 3, nonlinear regression fit; read-out: Half-life (min), α-chymotrypsin
T1 construct: purchased Sigma Type II; host or cells: bovine pancreas
Description: as §1, §2
To 100 μl of peptide solution (100 μM, dissolved in ammonium bicarbonate buffer, pH 7.5), 60 μl of ammonium bicarbonate buffer (pH 7.5) was added, together with 20 μl of temperature-equilibrated (37 ± 1 °C) α-chymotrypsin (5 μg/ml) from bovine pancreas (Sigma, Type II, activity > 40 units/mg protein). Peptides were incubated for 15, 30, 60, 120, 240, and 480 min, and then MeOH (HPLC grade) + 0.05% TFA was added. The samples were then centrifuged (15,000 rpm), and supernatant was analyzed in a similar manner as described above. The experiment was repeated twice on different days.

[2] = target: T2, trypsin from porcine pancreas (Sus scrofa, UniProt P00761); assay: Proteolytic stability against trypsin; assay type: in vitro ADME; conditions: pig, isolated enzyme trypsin; 55.5 μM peptide, 0.55 μg/ml trypsin from porcine pancreas, ammonium bicarbonate buffer pH 7.5, 37 °C, 15–480 min, intact peptide by RP-HPLC (Fmoc-Gly internal standard), n = 3, nonlinear regression fit; read-out: Half-life (min), trypsin
T2 construct: purchased Sigma; host or cells: porcine pancreas
T2 sequence (P00761 9-231): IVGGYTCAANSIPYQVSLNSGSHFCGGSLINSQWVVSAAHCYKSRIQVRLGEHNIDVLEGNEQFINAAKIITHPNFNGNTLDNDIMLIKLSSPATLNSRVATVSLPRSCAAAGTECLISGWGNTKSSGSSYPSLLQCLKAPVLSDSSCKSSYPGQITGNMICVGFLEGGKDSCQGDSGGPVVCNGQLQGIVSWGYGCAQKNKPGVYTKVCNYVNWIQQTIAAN
Description: as §1, §2
To 100 μl of peptide solution (100 μM, dissolved in ammonium bicarbonate buffer, pH 7.5), 60 μl of ammonium bicarbonate buffer (pH 7.5) was added, together with 20 μl of temperature-equilibrated (37 ± 1 °C) trypsin (5 μg/ml) from porcine pancreas (Sigma, 13,000–20,000 BAEE units/mg of protein). Peptides were incubated for 15, 30, 60, 120, 240, and 480 min, and then MeOH (HPLC Grade) + 0.05% TFA was added. The samples were then centrifuged (15,000 rpm), and the supernatant was analyzed, using Fmoc-Gly (10 μl, 0.2 mM) as an internal standard. The digestion at each time point was repeated three times to give the average values along with S.D. The amount of intact peptide that remained in the mixture was quantified by RP-HPLC. The experiment was repeated twice on different days.

[3] = target: T3, 5-HT2AR N-terminally tagged with LgBiT or SmBiT, CMV promoter (human, UniProt P28223 1-471); assay: split reporter (BiFC, NanoBiT); NanoBiT orientation screens: LgBiT and SmBiT receptor fusions (C- or N-terminal, CMV promoter) transiently co-transfected in HEK293 cells at 50 or 100 ng of receptor/well, compared with each construct alone; live cells, 24 h post-transfection, furimazine substrate; conditions: partners not purified
T3 construct: 5-hydroxytryptamine 2A receptor (5-HT2AR), human, cloned from the cDNA Resource Center plasmid; also called SmBiT–5-HT2AR; SmBiT 5-HT2AR; source: HEK293, transiently transfected (CMV promoter), live cells; not shown: LgBiT or SmBiT (one of the two on each copy; SmBiT in the peptide screen), N-terminal, kept
T3 sequence (P28223 whole entry, the tested form may be a part): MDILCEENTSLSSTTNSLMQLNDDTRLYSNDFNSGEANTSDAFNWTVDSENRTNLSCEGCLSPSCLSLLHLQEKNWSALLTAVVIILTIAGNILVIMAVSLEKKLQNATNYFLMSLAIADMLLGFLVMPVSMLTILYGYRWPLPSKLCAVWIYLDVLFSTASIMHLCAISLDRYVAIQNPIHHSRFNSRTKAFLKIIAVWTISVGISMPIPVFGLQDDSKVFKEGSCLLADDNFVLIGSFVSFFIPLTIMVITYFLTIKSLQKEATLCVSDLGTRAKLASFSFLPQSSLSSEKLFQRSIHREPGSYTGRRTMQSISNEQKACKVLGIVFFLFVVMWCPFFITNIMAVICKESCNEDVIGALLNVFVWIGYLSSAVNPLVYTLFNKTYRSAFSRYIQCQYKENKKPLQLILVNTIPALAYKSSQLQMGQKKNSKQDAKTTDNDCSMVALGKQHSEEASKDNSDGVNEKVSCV

Row | Molecule | half-life at 11.1 μM (Stability in mouse serum) | disruption of 5-HT2AR–CB1R heteromers (previous studies) (5-HT2AR–CB1R heteromers) | half-life at 55.5 μM [1] | half-life at 55.5 μM [2] | fold change of luminescence over the individual receptor construct [3]
1 | CC[C@H](C)[C@H](NC(=O)[C@@H](NC(=O)[C@@H]1CCCN1C(=O)[C@H](CC(N)=O)NC(=O)[C@@H](NC(=O)[C@@H](NC(=O)[C@H](CO)NC(=O)[C@H](CC(N)=O)NC(=O)[C@H](CC(C)C)NC(=O)[C@H](CC(C)C)NC(=O)[C@H](CS)NC(=O)[C@H](CC(C)C)NC(=O)[C@H](CCSC)NC(=O)[C@H](CO)NC(=O)[C@H](CS)NC(=O)[C@H](Cc1ccccc1)NC(=O)[C@H](C)NC(=O)[C@H](Cc1ccccc1)NC(=O)[C@@H](NC(=O)[C@@H](NC(=O)[C@H](CCCCN)NC(=O)[C@@H](NC(=O)[C@@H](N)CC(C)C)[C@@H](C)CC)[C@@H](C)O)C(C)C)[C@@H](C)O)C(C)C)[C@@H](C)CC)C(=O)N[C@@H](Cc1ccc(O)cc1)C(=O)N[C@@H](C)C(=O)N[C@@H](CC(C)C)C(=O)N[C@@H](CCCNC(=N)N)C(=O)NCC(=O)N[C@@H](CCCNC(=N)N)C(=O)N[C@@H](CCCCN)C(=O)N[C@@H](CCCCN)C(=O)N[C@@H](CCCNC(=N)N)C(=O)N[C@@H](CCCNC(=N)N)C(=O)N[C@@H](CCC(N)=O)C(=O)N[C@@H](CCCNC(=N)N)C(=O)N[C@@H](CCCNC(=N)N)C(=O)N[C@@H](CCCNC(=N)N)C(=O)O [TM7-TAT, reference compound] (H-LIKTVFAFCSMLCLLNSTVNPIIYALRGRKKRRQRRR-OH) | 0.46 h | did not disrupt the heteromer | 22 min | 21 min | –
2 | B1 | – | – | – | – | ~200 fold
